{"source": "patent US20130065888A1", "about": "“OPHTHALMIC FORMULATIONS AND PROCESSES FOR THEIR PREPARATION” (priority 2011, published 2013)", "test": "Numerical particle size distribution by microscopical image analysis of brinzolamide suspensions made by different homogenization techniques (Example 1)", "assay_type": "physicochemical", "details": "suspension in 0.05% Polysorbate 80, prior to treatment", "description": "Preferably, particle size analyses and particle size distributions of the suspension are obtained by microscopy using a particle size analyser (preferably by following US Pharmacopeia 29 <776>—Optical Microscopy).\nIn Examples 1.1, 1.2 and 1.3, brinzolamide ophthalmic suspensions were prepared by using three different homogenization techniques (high pressure homogenization in accordance with the present invention, high shear homogenization and ball milling) in order to test the effectiveness these techniques on de-agglomeration of brinzolamide particles and coating of the particles with wetting agent. Three different wetting agents were used (Polysorbate 80, Poloxamer 407 and Tyloxapol). Particle size analyses were conducted by microscopy.\nPortions of the suspension were treated separately by the following three methods (i)-(iii): • (i) high pressure homogenization (5000 psi/5 cycles using Microfluidizer® high pressure homogenizer) • (ii) high shear homogenization (8000 rpm/120 minutes (Ultra-Turrax high shear mixer) • (iii) ball milling (8.5 hours at 22-24 rpm (tumble blender; Zirconox beads: 0.7-1.2 mm)"}
{"smiles": "CCN[C@H]1CN(CCCOC)S(=O)(=O)c2sc(S(N)(=O)=O)cc21", "note": "[brinzolamide]", "values": [{"measurement": "particle size distribution of the individual brinzolamide particles, d90", "result": "≤ 3.0", "unit": "μm"}, {"measurement": "particle size of agglomerates of brinzolamide", "result": "greater than 10 μm"}]}
